Molecules are shown by their SMILES. Values after ≈ are worked out from the molar mass of the structure shown. Values joined by “and” are separate entries in the source; they are usually repeats but may differ in a detail not shown here. Equal entries are not always repeated. Where two headings read alike, the source gives them in different places.

This is an account of results in patent US9770409B2, “Aerosol formulations of ondansetron and uses thereof” (LUXENA PHARMACEUTICALS, INC., priority 2013, dated 2017).

The nature of data set [1]: Solubility of ondansetron in pMDI medium. It is filed as physicochemical. To be noted: for solubility at 8 days: organic solvent or mixture, thermodynamic from solid. As for the experimental part: The solubility of ondansetron was measured in a pMDI medium of HFA 134 as well as a mixture of HFA 134 and ethanol.
Data set [2] in a line: Particle size distribution of spray dried ondansetron fine powder by Malvern Mastersizer. It is filed as physicochemical. To be noted: typical particle size distribution. As for the experimental part:
The Particle Size Distribution of the Ondansetron Fine Powder, prepared by Spray Drying using the above parameters was measured by Malvern Mastersizer (Malvern Instruments, UK) at GEA Process Engineering, Inc., Columbia, Md., USA.

Where [3] appears, read: HFA 134a with Ethanol (9:1), 8 days.

`Cc1nccn1CC1CCc2c(c3ccccc3n2C)C1=O` (stereo not shown) [ondansetron]: the solubility at 8 days in data set [1] (HFA 134a (pMDI medium), HFA 134a alone, read-out: Solubility in HFA 134a, Average (RSD)) was 37.8 µg/mL (≈ 129 µM); in data set [1] (HFA 134a (pMDI medium), HFA 134a alone, read-out: Solubility in HFA 134a, single determinations), 34.7 µg/mL (≈ 118 µM); in data set [1] (HFA 134a with ethanol (9:1) (pMDI medium), HFA 134a with Ethanol (9:1), read-out: Solubility in HFA 134a with Ethanol (9:1), Average (RSD)) it was 202 µg/mL (≈ 688 µM); in data set [1] (HFA 134a with ethanol (9:1) (pMDI medium), HFA 134a with Ethanol (9:1), read-out: Solubility in HFA 134a with Ethanol (9:1), single determinations), 199 µg/mL (≈ 680 µM). In data set [1] (HFA 134a alone, 8 days), the “Solubility in HFA 134a, single determinations” value was 35.97 µg/mL and 40.27 µg/mL and 40.26 µg/mL. Also, the “Solubility in HFA 134a as % w/w” value in data set [1] (HFA 134a alone, 8 days, from gravity of HFA 134a 1.21 g/mL) is recorded as 0.00312 % w/w. Moreover, the “Solubility in HFA 134a with Ethanol (9:1) as % w/w” value in data set [1] (setting [3]) turned out to be 0.01668 % w/w. Further, the “Solubility in HFA 134a with Ethanol (9:1), single determinations” value in data set [1] (setting [3]) is 196.85 µg/mL and 215.75 µg/mL and 195.17 µg/mL.

Take `Cc1nccn1CC1CCc2c(c3ccccc3n2C)C1=O` (stereo not shown) [Ondansetron Fine Powder, ondansetron]: in data set [2], the “Cumulative % on <10 μm” value is listed as 99.5%, the D10 was 3.23 μm, the D50 was 5.01 μm and the D90 is reported as 7.22 μm. In addition, the “Mean Size” value in data set [2] is on record as 4.80 μm.
